Format in all cases: in vivo
Assay [1] relates to Chinese sprangletop, Leptochloa chinensis. The experiment in a line: Field trial in rice, foliar post-emergence visual weed control: Chinese sprangletop. Conditions: LEFCH. On the procedure: (§1) Field trials were conducted in Taiwan, China and Colombia with applications made in the area of naturally occurring weed populations. All treatments were applied using a randomized complete block trial design, with 3 to 4 replications per treatment. Plot size varied and was 1-6 meters×2-12 meters (width×length). Rice was seeded into the plots, and the rice crop was maintained as a normal commercial crop with appropriate fertilizer and maintenance treatments as needed. Rice size at application varied from the 2 to 4 leaf stage, and weeds were at the 2 to 5 leaf stage. All treatments were foliar applied as post-emergence treatments using backpack sprayers with compressed air or carbon dioxide (CO2) propellant. Spray pressure varied from 25 to 35 pounds per square inch (psi). Spray nozzles used were flat fan, with 1 to 4 nozzle booms used to apply from 200 to 450 L/ha of water as spray diluent. All treatments were mixed in water at appropriately formulated product rates to achieve the desired rates as shown based on a unit area of application (hectare). Commercially available products were used to make all applications, consisting of FENCER® 250D and BENGALA® 250D (25 grams active ingredient per liter (g ai/L) penoxsulam in an oil dispersion formulation); GALLANT™ SUPER and VERDICT™ SUPER EC (108 g ai/L haloxyfop-R-methyl in an emulsifiable concentrate formulation); GULLIVER® (500 grams active ingredient per kilograms (g ai/kg) WP (wettable powder)) and NOMINEE® SL (100 g ai/L bispyribac-sodium wettable powder).
(§2) Treatments consisted of haloxyfop-R-methyl and an ALS mode of action herbicide (penoxsulam, bispyribac-sodium, bensulfuron-methyl, or azimsulfuron), applied alone or in combination.
(§3) The treated plots and control plots were rated blind at various intervals after application. Ratings were based on a scale of 0-100%, as discussed above, wherein 0% indicates complete growth of the undesired vegetation and 100% indicates complete prevention of the undesired vegetation.
(§4) Colby's equation was used to determine the herbicidal effects expected from the mixtures, as described above. The results were measured at the evaluation intervals provided in Tables 1-5 after the first application of the compositions. […] The combinations tested, application rates and ratios employed, plant species tested, and results are included in Tables 1-5 below.
(§5) Colby's equation was used to determine the herbicidal effects expected from the mixtures (S. R. Colby, Calculating Synergistic and Antagonistic Responses of Herbicide Combinations, WEEDS 15, p. 22 (1967)). A t-test (alpha=0.05) between Colby predictions and observed combinations was used to test for significant differences indicating synergy or antagonism using replicate data. The results presented in Tables 1-5 were significant according to the described criteria.

Assay [2] relates to barnyardgrass, Echinochloa crus-galli. The experiment in a line: Field trial in rice, foliar post-emergence visual weed control: barnyardgrass. Particulars: ECHCG. On the procedure:
as §1, §2, §3, §4, §5

In assay [3] the test system is small flower flatsedge, Cyperus difformis. The experiment in a line: Field trial in rice, foliar post-emergence visual weed control: small flower flatsedge. Particulars: CYPDI; for % Visual Weed Control: 7DAA; for Mean % weed control: 14DAA. On the procedure: as §1, §2, §3, §4, §5
Assay [4] relates to bullgrass, Eleusine indica. The experiment in a line: Field trial in rice, foliar post-emergence visual weed control: bullgrass. Conditions: ELEIN, 7DAA. On the procedure: as §1, §2, §3, §4
Colby's equation was used to determine the herbicidal effects expected from the mixtures (S. R. Colby, Calculating Synergistic and Antagonistic Responses of Herbicide Combinations, WEEDS 15, p. 22 (1967)). A t-test (alpha=0.05) between Colby predictions and observed combinations was used to test for significant differences indicating synergy or antagonism using replicate data. […]

In assay [5] the test system is rice flatsedge, Cyperus iria. The experiment in a line: Field trial in rice, foliar post-emergence visual weed control: rice flatsedge. Conditions: CYPIR. On the procedure: as §1, §2, §3, §4, §5
Assay [6] relates to crabgrass, Digitaria horizontalis. The experiment in a line: Field trial in rice, foliar post-emergence visual weed control: crabgrass. Conditions: DIGHO. On the procedure:
as §1, §2, §3, §4, §5

Assay [7] concerns monochoria, Monochoria vaginalis. The experiment in a line: Field trial in rice, foliar post-emergence visual weed control: monochoria. Particulars: MOOVA, 7DAA. As to the method: as §1, with “Commercially available products were used to make all applications, consisting of FENCER® 250D and BENGALA® 250D (25 grams active ingredient per liter (g ai/L) penoxsulam in an oil dispersion formulation); GALLANT™ SUPER and VERDICT™ SUPER EC (108 g ai/L haloxyfop-R-methyl in an emulsifiable concentrate formulation); GULLIVER® (500 grams active ingredient per kilograms (g ai/kg) WP (wettable powder)) and NOMINEE® SL (100 g ai/L bispyribac-sodium wettable powder).” left out
Colby's equation was used to determine the herbicidal effects expected from the mixtures, as described above. The results were measured at the evaluation intervals provided in Tables 1-5 after the first application of the compositions. […]

Assay [8] has as its system itch grass, Rottboellia exaltata. The experiment in a line: Field trial in rice, foliar post-emergence visual weed control: itch grass. Conditions: ROOEX. As to the method:
as §1, §2, §3, §4, §5

Consider 5 compounds from patent publication US10624342B2, “Synergistic weed control from applications of haloxyfop and ALS inhibitor herbicides” (priority 2014, dated 2020).

Where “and” joins values, the source holds several entries; their conditions need not be identical. Equal entries are not always repeated.

Regarding `COc1cc(OC)nc(NC(=O)NS(=O)(=O)c2c(-c3nnn(C)n3)cnn2C)n1` [Azimsulfuron, 1-(4,6-dimethoxypyrimidin-2-yl)-3-[1-methyl-4-(2-methyl-2H-tetrazol-5-yl)pyrazol-5-ylsulfonyl]urea], the “Mean % weed control” value is 0.0% in assay [1] (14DAA, 10 g ai/ha alone); 0.0% in assay [1] (14DAA, 20 g ai/ha alone); 89.0% in assay [2] (7DAA, 40 g ai/ha alone).
In the case of `COC(=O)c1ccccc1CS(=O)(=O)NC(=O)Nc1nc(OC)cc(OC)n1` [Bensulfuron-Methyl, bensulfuron-methyl], the “% Visual Weed Control” value in assay [3] (10 g ai/ha alone) stood at 90%; in assay [3] (20 g ai/ha alone) it was 92%; in assay [2] (28DAA, 20 g ai/ha alone (Table 4)), 0%; in assay [2] (28DAA, 40 g ai/ha alone (Table 4)), 23%.
As to `COc1cc(OC)nc(Oc2cccc(Oc3nc(OC)cc(OC)n3)c2C(=O)O)n1` [Bispyribac-Sodium, bispyribac-sodium], the “Mean % weed control” value in assay [2] (7DAA, 20 g ai/ha alone) is reported as 53.3%; in assay [2] (7DAA, 40 g ai/ha alone) it was 76.7%; in assay [2] (14DAA, 20 g ai/ha alone) it was 35.0%; in assay [2] (28DAA, 20 g ai/ha alone), 20.0%; in assay [2] (28DAA, 40 g ai/ha alone), 88.3%.
`COC(=O)C(C)Oc1ccc(Oc2ncc(C(F)(F)F)cc2Cl)cc1` [Haloxyfop-methyl (R), haloxyfop-R-methyl]: the “Mean % weed control” value is listed as 21.7% in assay [4] (4 g ai/ha alone); 0.0% in assay [1] (7DAA, 8 g ai/ha alone); 0.0% in assay [1] (14DAA, 2 g ai/ha alone); 0.0% in assay [1] (14DAA, 4 g ai/ha alone); 0.0% in assay [1] (28DAA, 8 g ai/ha alone); 0.0% in assay [5] (7DAA, 8 g ai/ha alone). Also, the “Mean % weed control” value in assay [5] (7DAA, 16 g ai/ha alone) was found to be 0.0%; in assay [5] (15DAA, 8 g ai/ha alone) it was 0.0%; in assay [5] (15DAA, 16 g ai/ha alone), 11.3%; in assay [6] (7DAA, 8 g ai/ha alone) it was 71.7%; in assay [6] (15DAA, 4 g ai/ha alone), 35.0%; in assay [3] (16 g ai/ha alone), 0.0%. Also, the “Mean % weed control” value in assay [3] (32 g ai/ha alone) was found to be 0.0%; in assay [7] (16 g ai/ha alone), 0.0%; in assay [2] (7DAA, 4 g ai/ha alone), 0.0%; in assay [2] (7DAA, 8 g ai/ha alone), 0.0%; in assay [2] (7DAA, 27 g ai/ha alone), 0.0%; in assay [2] (14DAA, 8 g ai/ha alone), 0.0%. The “Mean % weed control” value is 0.0% in assay [2] (21DAA, 27 g ai/ha alone); 0.0% in assay [2] (28DAA, 4 g ai/ha alone); 0.0% and 6.7% in assay [2] (28DAA, 8 g ai/ha alone); 0.0% in assay [2] (28DAA, 13.5 g ai/ha alone); 0.0% in assay [2] (28DAA, 27 g ai/ha alone); 11.7% in assay [8] (7DAA, 8 g ai/ha alone). In addition, the “Mean % weed control” value worked out at 0.0% in assay [8] (15DAA, 4 g ai/ha alone); 77.5% in assay [8] (15DAA, 16 g ai/ha alone); 0.0% in assay [8] (28DAA, 4 g ai/ha alone). Also, the “% Visual Weed Control” value is 0% in assay [3] (2 g ai/ha alone); 0% in assay [3] (8 g ai/ha alone); 0% in assay [2] (28DAA, 4 g ai/ha alone (Table 4)); 0% in assay [2] (28DAA, 8 g ai/ha alone (Table 4)).
As to `COc1cnc(OC)n2nc(NS(=O)(=O)c3c(OCC(F)F)cccc3C(F)(F)F)nc12` [Penoxsulam], the “Mean % weed control” value in assay [4] (8 g ai/ha alone) turned out to be 0.0%; in assay [4] (16 g ai/ha alone), 0.0%; in assay [4] (32 g ai/ha alone), 0.0%; in assay [1] (7DAA, 10 g ai/ha alone) it was 0.0%; in assay [1] (7DAA, 20 g ai/ha alone) it was 0.0%; in assay [1] (7DAA, 30 g ai/ha alone), 0.0%. The “Mean % weed control” value in assay [1] (14DAA, 10 g ai/ha alone) is reported as 0.0%; in assay [1] (14DAA, 20 g ai/ha alone), 0.0%; in assay [1] (14DAA, 30 g ai/ha alone) it was 0.0%; in assay [1] (28DAA, 30 g ai/ha alone) it was 0.0%; in assay [5] (7DAA, 8 g ai/ha alone), 62.0%; in assay [5] (7DAA, 32 g ai/ha alone), 87.0%. Further, the “Mean % weed control” value worked out at 85.0% in assay [5] (15DAA, 8 g ai/ha alone); 0.0% in assay [6] (7DAA, 8 g ai/ha alone); 0.0% in assay [6] (7DAA, 16 g ai/ha alone); 0.0% in assay [6] (15DAA, 8 g ai/ha alone); 0.0% in assay [6] (15DAA, 16 g ai/ha alone); 0.0% in assay [6] (15DAA, 32 g ai/ha alone). Further, the “Mean % weed control” value in assay [3] (10 g ai/ha alone) turned out to be 93.3%; in assay [7] (5 g ai/ha alone), 90.0%; in assay [2] (7DAA, 10 g ai/ha alone) it was 63.3%; in assay [2] (7DAA, 15 g ai/ha alone), 95.7%; in assay [2] (21DAA, 15 g ai/ha alone), 93.3%; in assay [2] (28DAA, 7.5 g ai/ha alone), 53.3%. The “Mean % weed control” value is reported as 56.7% in assay [2] (28DAA, 10 g ai/ha alone); 91.7% in assay [2] (28DAA, 15 g ai/ha alone); 98.3% in assay [2] (28DAA, 30 g ai/ha alone); 3.3% in assay [8] (7DAA, 32 g ai/ha alone); 0.0% in assay [8] (15DAA, 8 g ai/ha alone); 0.0% in assay [8] (28DAA, 8 g ai/ha alone). Further, the “Mean % weed control” value in assay [8] (28DAA, 16 g ai/ha alone) came to 12.5%.
